Eight compounds from patent US20250059220A1, “SUBSTITUTED BENZOTHIOPHENE DERIVATIVES AND METHODS OF USE THEREOF” (Merck Sharp & Dohme LLC, priority 2021, published 2025) can be followed below.

Molecules are shown by their SMILES.

Usually IC50 stands for the midpoint of a concentration-inhibition curve.

The target in one test is human PTPN1 (1-435) (Homo sapiens (Human), UniProt P18031). Put plainly: Human PTPN1 Biochemical Assay. Particulars: DiFMUP substrate, read-out: PTP1B IC50. Summed up: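 Read-out is DiFMUP hydrolysis fluorescence (360 nm excitation, 460 nm emission) after 1 h at room temperature, following 30 min enzyme–compound preincubation.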
A further test has as its target human PTPN2 (1-387) (Homo sapiens (Human), UniProt P17706). Briefly: Human PTPN2 Biochemical Assay. The note with it: DiFMUP substrate. Summed up:
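Human PTPN2 (1-387) preincubated 30 min at RT with compound (10-point 3-fold series) in Tris pH 7.4 buffer with 0.5 mM DTT, then DiFMUP substrate added for 1 h at RT. Fluorescence at ex 360/em 460 nm, normalised to no-enzyme and enzyme controls; EC50 from 4-parameter fit.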

Chain of human PTPN2 (1-387) (P17706 other isoform, or with tags, fused parts or gaps): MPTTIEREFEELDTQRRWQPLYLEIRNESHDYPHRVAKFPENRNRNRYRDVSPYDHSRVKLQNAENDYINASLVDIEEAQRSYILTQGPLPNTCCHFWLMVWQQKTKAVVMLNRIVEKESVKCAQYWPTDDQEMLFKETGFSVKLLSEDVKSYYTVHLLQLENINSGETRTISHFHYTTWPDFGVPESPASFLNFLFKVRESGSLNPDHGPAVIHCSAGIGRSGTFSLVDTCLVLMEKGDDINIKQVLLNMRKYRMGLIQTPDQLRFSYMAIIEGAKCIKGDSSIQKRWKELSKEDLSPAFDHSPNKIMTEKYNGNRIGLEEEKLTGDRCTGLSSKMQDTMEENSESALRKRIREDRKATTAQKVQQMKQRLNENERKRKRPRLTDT
Chain of human PTPN1 (1-435) (P18031 whole entry): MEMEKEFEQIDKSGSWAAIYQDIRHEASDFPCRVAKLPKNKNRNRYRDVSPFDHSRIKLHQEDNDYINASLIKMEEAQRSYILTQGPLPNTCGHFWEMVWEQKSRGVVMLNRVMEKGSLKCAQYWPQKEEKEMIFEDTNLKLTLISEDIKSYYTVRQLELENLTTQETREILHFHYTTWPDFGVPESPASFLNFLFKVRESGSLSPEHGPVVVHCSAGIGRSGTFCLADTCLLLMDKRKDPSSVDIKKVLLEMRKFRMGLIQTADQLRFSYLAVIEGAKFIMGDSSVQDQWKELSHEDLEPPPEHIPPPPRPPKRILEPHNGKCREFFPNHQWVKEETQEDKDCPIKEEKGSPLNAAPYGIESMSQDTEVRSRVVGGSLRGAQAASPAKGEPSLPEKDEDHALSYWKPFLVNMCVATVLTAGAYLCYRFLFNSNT

As for `CS(=O)(=O)CCCOc1cc(C(N)=O)cc2c(C(F)F)c(C(F)(F)P(=O)(O)O)sc12` [Compound 454, ((5-carbamoyl-3-(difluoromethyl)-7-(3-(methylsulfonyl)propoxy)benzo[b]thiophen-2-yl)difluoromethyl)phosphonic acid], the half-inhibitory concentration (IC50) was determined as 40.3 nM at human PTPN1 (1-435) and 24.5 nM on human PTPN2 (1-387).
With `N#Cc1c(C(F)(F)P(=O)(O)O)sc2c(OCCCS(N)(=O)=O)cc(-c3c[nH]nn3)cc12` [Compound 455, ((3-cyano-7-(3-sulfamoylpropoxy)-5-(1H-1,2,3-triazol-4-yl)benzo[b]thiophen-2-yl)difluoromethyl)phosphonic acid], the figures for the IC50 on human PTPN1 (1-435) and against human PTPN2 (1-387) were 3.6 nM and 2.69 nM, respectively.
Taken in the same sequence, the figures for `CC(C)(O)CCCOc1cc(C(N)=O)cc2c(C(F)(F)F)c(C(F)(F)P(=O)(O)O)sc12` [Compound 456, ((5-carbamoyl-7-((4-hydroxy-4-methylpentyl)oxy)-3-(trifluoromethyl)benzo[b]thiophen-2-yl)difluoromethyl)phosphonic acid] were 23.2 nM and 14.1 nM.
Taken in the same sequence, the figures for `N#Cc1c(C(F)(F)P(=O)(O)O)sc2c(OCCCS(N)(=O)=O)cc(-c3nc[nH]n3)cc12` [Compound 457, ((3-cyano-7-(3-sulfamoylpropoxy)-5-(1H-1,2,4-triazol-3-yl)benzo[b]thiophen-2-yl)difluoromethyl)phosphonic acid] were 2.5 nM and 2.5 nM.
For `CNS(=O)(=O)c1cc(OCCCC(F)(F)F)c2sc(C(F)(F)P(=O)(O)O)c(Br)c2c1` [Compound 459, ((3-bromo-5-(N-methylsulfamoyl)-7-(4,4,4-trifluorobutoxy)benzo[b]thiophen-2-yl)difluoromethyl)phosphonic acid] the same measures were 616 nM and 892 nM.
For `CS(=O)(=O)CCCOc1cc(-c2cc(=O)cc[nH]2)cc2c(Br)c(C(F)(F)P(=O)(O)O)sc12` [Compound 460, ((3-bromo-7-(3-(methylsulfonyl)propoxy)-5-(4-oxo-1,4-dihydropyridin-2-yl)benzo[b]thiophen-2-yl)difluoromethyl)phosphonic acid], the IC50 at human PTPN1 (1-435) and against human PTPN2 (1-387) was 2.5 nM each time.
Take `CS(=O)(=O)c1ccc(COc2cc(C(N)=O)cc3c(Br)c(C(F)(F)P(=O)(O)O)sc23)c(C#N)c1` [Compound 463, ((3-bromo-5-carbamoyl-7-((2-cyano-4-(methylsulfonyl)benzyl)oxy)benzo[b]thiophen-2-yl)difluoromethyl)phosphonic acid]: the IC50 on human PTPN1 (1-435) was 14.8 nM; on human PTPN2 (1-387) it was 6.7 nM.
In the case of `NC(=O)c1cc(OCC(F)CC(F)(F)F)c2sc(C(F)(F)P(=O)(O)O)c(Br)c2c1` (stereo not shown) [Compound 464, ((3-bromo-5-carbamoyl-7-(2,4,4,4-tetrafluorobutoxy)benzo[b]thiophen-2-yl)difluoromethyl)phosphonic acid], the IC50 worked out at 42.6 nM on human PTPN1 (1-435) and 39.7 nM on human PTPN2 (1-387).
